Laboratory results published in patent US20170334899A1, “AMINO-SUBSTITUTED ISOTHIAZOLES” (Bayer Pharma Aktiengesellschaft, priority 2014, published 2017).

Tested on: human cervical tumor cell line HeLa (ATCC CCL-2)
Assay: SAC-Formation - Paclitaxel-Induced Assay
Format: cell-based
Conditions: Homo sapiens, HeLa, 24 h, HeLa cells, paclitaxel 0.05 μM, test range 0.005 μM-20 μM, read-out: IC50 [mol/l] SAC-Formation - Paclitaxel-Induced Assay
Summary of the method: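 Read-out is high-content imaging of anti-phospho-H3 Ser10 (mitosis) and Hoechst 33342 (DNA, cell number), with decreased mitotic fraction marking checkpoint breakthrough. Compounds (0.005–20 μM) and 0.05 μM paclitaxel co-added to overnight-plated HeLa for 24 h at 37° C; four-parameter Hill fit.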

IC50 | SMILES
1700 nM | Cc1nsc(Nc2cnc3ccccc3n2)c1C(=O)Nc1ccc(Nc2ccc(F)c(F)c2)nc1 [Example 245, N-{6-[(3,4-difluorophenyl)amino]pyridin-3-yl}-3-methyl-5-(quinoxalin-2-ylamino)-1,2-thiazole-4-carboxamide]
300 nM | CC(=O)N1CCC(Oc2ccc(NC(=O)c3c(C)nsc3Nc3cncc(C(F)(F)F)n3)cn2)CC1 [Example 17, N-{6-[(1-Acetylpiperidin-4-yl)oxy]pyridin-3-yl}-3-methyl-5-{[6-(trifluoromethyl)-pyrazin-2-yl]amino}-1,2-thiazole-4-carboxamide]
75 nM | CC(=O)Nc1cc(NC(=O)c2c(C)nsc2Nc2cnc(C(F)(F)F)cn2)ccc1F [Example 206, N-(3-acetamido-4-fluorophenyl)-3-methyl-5-{[5-(trifluoromethyl)pyrazin-2-yl]amino}-1,2-thiazole-4-carboxamide]
180 nM | Cc1nsc(Nc2cnc(C(F)(F)F)cn2)c1C(=O)Nc1ccc(OCCNC(=O)OC(C)(C)C)nc1 [Example 192, tert-butyl {2-[(5-{[(3-methyl-5-{[5-(trifluoromethyl)pyrazin-2-yl]amino}-1,2-thiazol-4-yl)carbonyl]amino}pyridin-2-yl)oxy]ethyl}carbamate]
